Type in all cases: biochemical
In assay [1] the target is T1, recombinant human DAO (diamine oxidase) (Homo sapiens, UniProt P19801).
T1 construct: purchased R&D systems
T1 sequence (P19801 20-751): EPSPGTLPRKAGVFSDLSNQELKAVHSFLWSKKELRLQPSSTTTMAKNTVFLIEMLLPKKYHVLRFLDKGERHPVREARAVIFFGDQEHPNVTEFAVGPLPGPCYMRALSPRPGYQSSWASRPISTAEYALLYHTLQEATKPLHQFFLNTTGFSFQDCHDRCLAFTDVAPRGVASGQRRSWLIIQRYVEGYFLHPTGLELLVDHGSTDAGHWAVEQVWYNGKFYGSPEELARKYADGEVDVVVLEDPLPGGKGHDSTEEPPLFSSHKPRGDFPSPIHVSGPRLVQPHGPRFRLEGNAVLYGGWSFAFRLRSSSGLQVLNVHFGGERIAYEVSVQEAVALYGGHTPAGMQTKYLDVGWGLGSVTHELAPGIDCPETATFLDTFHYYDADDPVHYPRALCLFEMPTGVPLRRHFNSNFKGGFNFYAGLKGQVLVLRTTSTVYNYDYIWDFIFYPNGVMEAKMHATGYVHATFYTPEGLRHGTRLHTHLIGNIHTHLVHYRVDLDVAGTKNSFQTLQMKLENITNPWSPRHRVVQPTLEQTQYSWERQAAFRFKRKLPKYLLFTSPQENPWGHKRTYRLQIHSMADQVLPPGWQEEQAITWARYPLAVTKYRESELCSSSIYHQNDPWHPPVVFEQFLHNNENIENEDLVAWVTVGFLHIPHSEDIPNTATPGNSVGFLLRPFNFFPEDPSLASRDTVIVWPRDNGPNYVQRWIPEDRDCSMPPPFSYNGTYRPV
Nature of the assay: Activity evaluation on recombinant human DAO (Amplex Red/HRP-coupled assay, 1 mM putrescine substrate). To be noted: read-out: Inhibitory Activity (IC50, nM) DAO. The method in brief: (§1)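 Using an HRP-coupled Amplex Red readout (544/590 nm, kinetic over 1–2 h), IC50 values were fitted by 4-parameter logistic model to percent decrease in signal rate against DMSO control. Compounds (1:3 dilutions, 8 points, <1% DMSO) sat 30 min at 37 °C with enzyme in pH 7.4 phosphate buffer before substrate, 200 uM Amplex Red and HRP were added.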

Assay [2] has as its target T2, recombinant human MAO-A (monoamine oxidase-A) (Homo sapiens, UniProt P21397).
T2 construct: purchased Sigma-Aldrich
T2 sequence (P21397 1-527): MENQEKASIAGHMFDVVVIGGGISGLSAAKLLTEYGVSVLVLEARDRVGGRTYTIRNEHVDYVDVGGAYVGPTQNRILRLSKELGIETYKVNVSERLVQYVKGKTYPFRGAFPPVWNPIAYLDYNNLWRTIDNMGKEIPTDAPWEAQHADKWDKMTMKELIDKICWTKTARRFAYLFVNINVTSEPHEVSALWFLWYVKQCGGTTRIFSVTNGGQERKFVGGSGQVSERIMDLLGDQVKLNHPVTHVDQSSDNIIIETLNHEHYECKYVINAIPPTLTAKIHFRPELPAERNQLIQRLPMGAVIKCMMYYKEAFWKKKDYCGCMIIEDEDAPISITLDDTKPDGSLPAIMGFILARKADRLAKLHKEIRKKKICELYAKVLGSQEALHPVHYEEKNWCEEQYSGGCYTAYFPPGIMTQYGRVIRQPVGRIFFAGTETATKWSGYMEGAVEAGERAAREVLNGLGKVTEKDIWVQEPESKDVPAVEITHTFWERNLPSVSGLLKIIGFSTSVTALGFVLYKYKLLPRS
Nature of the assay: Activity evaluation on recombinant human MAO-A (Amplex Red/HRP-coupled assay, 0.5 mM tyramine substrate). The following applies: read-out: Inhibitory Activity (IC50, nM) MAO-A. The method in brief:
as §1

The target of assay [3] is T3, recombinant human VAP-1 (Homo sapiens, UniProt Q16853).
T3 construct: purchased R&D systems
T3 sequence (Q16853 1-763): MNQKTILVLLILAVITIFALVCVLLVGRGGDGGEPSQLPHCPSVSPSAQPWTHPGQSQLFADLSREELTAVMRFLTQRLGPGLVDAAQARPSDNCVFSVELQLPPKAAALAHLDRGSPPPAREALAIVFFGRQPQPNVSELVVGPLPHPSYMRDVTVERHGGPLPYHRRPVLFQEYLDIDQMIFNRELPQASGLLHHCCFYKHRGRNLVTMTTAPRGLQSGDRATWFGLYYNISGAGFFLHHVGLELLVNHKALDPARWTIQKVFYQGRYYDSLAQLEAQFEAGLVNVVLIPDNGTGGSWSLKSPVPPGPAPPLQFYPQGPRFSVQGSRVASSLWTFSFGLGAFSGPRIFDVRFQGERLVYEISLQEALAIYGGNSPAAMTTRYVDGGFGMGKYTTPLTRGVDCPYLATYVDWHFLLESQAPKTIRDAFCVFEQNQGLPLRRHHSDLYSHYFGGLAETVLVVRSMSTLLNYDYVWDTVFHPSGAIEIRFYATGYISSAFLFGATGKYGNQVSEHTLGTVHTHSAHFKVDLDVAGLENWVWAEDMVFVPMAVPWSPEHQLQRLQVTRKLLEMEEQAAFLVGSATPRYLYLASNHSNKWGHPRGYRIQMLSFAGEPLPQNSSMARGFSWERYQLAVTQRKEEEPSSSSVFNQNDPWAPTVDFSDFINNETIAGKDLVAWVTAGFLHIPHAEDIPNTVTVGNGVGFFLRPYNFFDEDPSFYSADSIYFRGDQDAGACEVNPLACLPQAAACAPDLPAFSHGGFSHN
Nature of the assay: Activity evaluation on recombinant human VAP-1 (Amplex Red/HRP-coupled hydrogen peroxide assay, benzylamine substrate). To be noted: read-out: Inhibitory Activity (IC50, nM) human VAP-1. The gist of the method:
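Hydrogen peroxide from benzylamine (1 mM) oxidation by human recombinant VAP-1 detected via HRP-coupled Amplex Red (200 uM) fluorescence, kinetic over 1–2 h. Enzyme and compound preincubated 30 min at 37 °C, pH 7.4 phosphate; 8-point dose response, signal-rate decrease versus DMSO control fitted to four-parameter logistic for IC50.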

Assay [4] deals with T4, recombinant human MAO-B (monoamine oxidase-B) (Homo sapiens, UniProt P27338).
T4 construct: purchased Sigma-Aldrich
T4 sequence (P27338 1-520): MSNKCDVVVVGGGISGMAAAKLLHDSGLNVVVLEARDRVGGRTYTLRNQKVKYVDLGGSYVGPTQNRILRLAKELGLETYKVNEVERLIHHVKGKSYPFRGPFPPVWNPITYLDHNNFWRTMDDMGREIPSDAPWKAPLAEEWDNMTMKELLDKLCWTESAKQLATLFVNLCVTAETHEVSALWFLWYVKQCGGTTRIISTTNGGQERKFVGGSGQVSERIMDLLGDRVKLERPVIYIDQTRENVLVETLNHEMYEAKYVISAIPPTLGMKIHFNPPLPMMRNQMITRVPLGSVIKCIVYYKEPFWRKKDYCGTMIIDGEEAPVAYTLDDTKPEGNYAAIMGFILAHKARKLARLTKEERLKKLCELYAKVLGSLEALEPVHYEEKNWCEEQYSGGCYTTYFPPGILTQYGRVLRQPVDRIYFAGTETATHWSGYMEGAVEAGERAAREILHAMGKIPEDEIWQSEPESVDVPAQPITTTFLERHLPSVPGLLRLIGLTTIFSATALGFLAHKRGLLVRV
The experiment in a line: Activity evaluation on recombinant human MAO-B (Amplex Red/HRP-coupled assay, 1 mM benzylamine substrate). The following applies: read-out: Inhibitory Activity (IC50, nM) MAO-B. The gist of the method:
as §1

[5] abbreviates: recombinant human VAP-1, 30 min preincubation at 37° C., 1 mM benzylamine.
[6] abbreviates: recombinant human VAP-1, benzylamine substrate.

Where a name gives a salt, the structure may show the parent alone. Read-outs that look alike come from different tables or passages of the source.

A word on the IC50: it is the midpoint of a concentration-inhibition curve.

In the case of `NCC(Cn1ncn(Cc2cc(-c3ccc4c(c3)OCO4)cs2)c1=O)=C(F)F` [Example 150, 2-[2-(aminomethyl)-3,3-difluoro-allyl]-4-[[4-(1,3-benzodioxol-5-yl)-2-thienyl]methyl]-1,2,4-triazol-3-one Trifluoroacetate], the IC50 in assay [1] (1 mM putrescine) was over 10000 nM; in assay [2] (0.5 mM tyramine) it was over 100000 nM; in assay [3] (setting [5]), 2.9 nM; in assay [4] (1 mM benzylamine) it was 2800 nM.

Take `NCC(Cn1ncn(CCc2ccc(-c3ccc(C(F)(F)F)nc3)s2)c1=O)=C(F)F` [Example 175, 2-[2-(aminomethyl)-3,3-difluoro-allyl]-4-[2-[5-[6-(trifluoromethyl)-3-pyridyl]-2-thienyl]ethyl]-1,2,4-triazol-3-one Trifluoroacetate]: the half-maximal inhibitory concentration (IC50) in assay [1] (1 mM putrescine) is 250 nM; in assay [2] (0.5 mM tyramine) it was over 100000 nM; in assay [3] (setting [5]), 0.4 nM; in assay [4] (1 mM benzylamine), 14000 nM.

On to `NCC(Cn1ncn(Cc2ccc(-c3ccc4cn[nH]c4c3)s2)c1=O)=C(F)F` [Example 127, 2-[2-(aminomethyl)-3,3-difluoro-allyl]-4-[[5-(1H-indazol-6-yl)-2-thienyl]methyl]-1,2,4-triazol-3-one Trifluoroacetate], for which the half-inhibitory concentration (IC50) was over 100000 nM in assay [1] (1 mM putrescine), over 100000 nM in assay [2] (0.5 mM tyramine), 0.6 nM in assay [3] (setting [5]) and 1070 nM in assay [4] (1 mM benzylamine).

In the case of `NCC(Cn1ncn(Cc2cc3cc(-c4ccc(N5CCNCC5)cc4)ccc3s2)c1=O)=C(F)F` [Example 206, 2-[2-(aminomethyl)-3,3-difluoro-allyl]-4-[[5-(4-piperazin-1-ylphenyl)benzothiophen-2-yl]methyl]-1,2,4-triazol-3-one Ditrifluoroacetate], the IC50 in assay [1] (1 mM putrescine substrate) is 639 nM; in assay [2] (0.5 mM tyramine substrate) it was over 100000 nM; in assay [3] (setting [6]), 2.3 nM; in assay [4] (1 mM benzylamine substrate), 14600 nM.

As for `Cc1cc(-c2cnc3[nH]ccc3c2)cnc1-n1cnn(CC(CN)=C(F)F)c1=O` [Example 228, 2-[2-(aminomethyl)-3,3-difluoro-allyl]-4-[3-methyl-5-(1H-pyrrolo[2,3-b]pyridin-5-yl)-2-pyridyl]-1,2,4-triazol-3-one Trifluoroacetate], the IC50 in assay [1] (1 mM putrescine substrate) was 7700 nM; in assay [2] (0.5 mM tyramine substrate) it was over 100000 nM; in assay [3] (setting [6]) it was 0.6 nM; in assay [4] (1 mM benzylamine substrate), 3300 nM.

With `Cc1cc(-c2cccc(S(C)(=O)=O)c2)cnc1-n1cnn(CC(CN)=C(F)F)c1=O` [Example 234, 2-[2-(aminomethyl)-3,3-difluoro-allyl]-4-[3-methyl-5-(3-methylsulfonylphenyl)-2-pyridyl]-1,2,4-triazol-3-one Trifluoroacetate], the 50% inhibitory concentration (IC50) in assay [1] (1 mM putrescine substrate) is 7500 nM; in assay [2] (0.5 mM tyramine substrate), over 100000 nM; in assay [3] (setting [6]) it was 0.4 nM; in assay [4] (1 mM benzylamine substrate) it was 1800 nM.

As for `NCC(Cn1ncn(Cc2ccc(C#Cc3ccc4c(c3)CCC(=O)N4)s2)c1=O)=C(F)F` [Example 165, 6-[2-[5-[[1-[2-(aminomethyl)-3,3-difluoro-allyl]-5-oxo-1,2,4-triazol-4-yl]methyl]-2-thienyl]ethynyl]-3,4-dihydro-1H-quinolin-2-one Trifluoroacetate], the IC50 in assay [1] (1 mM putrescine) was over 10000 nM; in assay [2] (0.5 mM tyramine) it was over 100000 nM; in assay [3] (setting [5]), 0.5 nM; in assay [4] (1 mM benzylamine), 5900 nM.

For the compound `Cc1cc(-c2ccc3nonc3c2)cnc1-n1cnn(CC(CN)=C(F)F)c1=O` [Example 227, 2-[2-(aminomethyl)-3,3-difluoro-allyl]-4-[5-(2,1,3-benzoxadiazol-5-yl)-3-methyl-2-pyridyl]-1,2,4-triazol-3-one Trifluoroacetate], the IC50 in assay [1] (1 mM putrescine substrate) is 4800 nM; in assay [2] (0.5 mM tyramine substrate), over 100000 nM; in assay [3] (setting [6]) it was 0.7 nM; in assay [4] (1 mM benzylamine substrate), 340 nM.

Regarding `NCC(Cn1ncn(-c2ccc(-c3ccc(N4CCNCC4)cc3)nc2)c1=O)=C(F)F` [Example 39, 2-[2-(aminomethyl)-3,3-difluoro-allyl]-4-[6-(4-piperazin-1-ylphenyl)-3-pyridyl]-1,2,4-triazol-3-one Ditrifluoroacetate], the IC50 in assay [1] (1 mM putrescine) is 310 nM; in assay [2] (0.5 mM tyramine), over 100000 nM; in assay [3] (setting [5]), 1.2 nM; in assay [4] (1 mM benzylamine) it was 46000 nM.

In the case of `NCC(Cn1ncn(Cc2ccc(-c3cnn(C(F)F)c3)s2)c1=O)=C(F)F` [Example 183, 2-[2-(aminomethyl)-3,3-difluoro-allyl]-4-[[5-[1-(difluoromethyl)pyrazol-4-yl]-2-thienyl]methyl]-1,2,4-triazol-3-one Trifluoroacetate], the IC50 in assay [1] (1 mM putrescine substrate) was over 100000 nM; in assay [2] (0.5 mM tyramine substrate) it was over 100000 nM; in assay [3] (setting [6]), 1.4 nM; in assay [4] (1 mM benzylamine substrate) it was 2100 nM.

For the compound `CCn1cc(-c2csc(Cn3cnn(CC(CN)=C(F)F)c3=O)c2)cn1` [Example 153, 2-[2-(aminomethyl)-3,3-difluoro-allyl]-4-[[4-(1-ethylpyrazol-4-yl)-2-thienyl]methyl]-1,2,4-triazol-3-one Trifluoroacetate], the IC50 in assay [1] (1 mM putrescine) is 36000 nM; in assay [2] (0.5 mM tyramine), over 100000 nM; in assay [3] (setting [5]), 1.3 nM; in assay [4] (1 mM benzylamine), 29000 nM.

Source of the values: patent publication US11168073B2, “3,3-difluoroallylamines or salts thereof and pharmaceutical compositions comprising the same” (YUHAN CORPORATION, priority 2018, dated 2021).
